# Results from patent US20240216476A1, “COMBINATION OF BITTER RECEPTOR AGONIST AND GUT-SIGNALING COMPOUND” (AARDVARK THERAPEUTICS, INC., priority 2021, published 2024).
# Values joined by “and” are separate entries in the source; they are usually repeats but may differ in a detail not shown here. Equal entries are not always repeated. “Also recorded” adds a separate entry of the source. Where two headings read alike, the source gives them in different places. Marks after values point to notes of the source that are not given here.
# How the values were obtained:
# [1] = in vivo; cited from earlier work
# [2] = system: high fat diet induced obese (DIO) mouse model; assay: 4-week study of DA, liraglutide or their combination in high fat diet induced obese (DIO) mice (Example 2); type: in vivo
# Procedure: After arrival at the testing facility, all animals were acclimated to the vivarium for a period no less than 3 days and placed on a 60% Fat Rodent Diet (D12492; Research Diets), 12:12 dark/light cycle and group housed, 2-3 in hepa-filtered cages. All treatments were continued for four weeks. During the study period, gross observation (animal behavior and clinical signs) was conducted, and body weight measurement was performed three times per week for each animal. At the end of the study, all animals were fasted overnight before measurements were taken for serum levels of glucose, insulin, hemoglobin A1c (HbA1c), low-density lipoprotein (LDL) cholesterol, high-density lipoprotein (HDL) cholesterol, triglyceride (TG), and bile acid (BA). Statistical analysis of data was performed using one tail Student's t-test on Excel.
# [3] = human, in vivo, po
# Text: Accordingly, the gut peptide hormone data in both the in vivo studies in the examples herein and the phase 1 clinical trial data in Example 3 show synergy for the treatment and/or management of glucagon-related diseases, disorders or conditions, various indications. […] The clinical data also corroborated the DIO mouse data (Example 2). Yet, the marketers of GLP-1 agonists (like those available from Novo Nordisk, Lilly) claim only GLP-1 is important for both diabetes and weight loss. Also, DPP-4 is an enzyme that degrades GLP-1 and PYY to give both of those hormones short half-lives. Accordingly, in some embodiments herein, a DPP-4 inhibitor is used as part of the API combination.
# Therefore, both the pharmacokinetic data in a clinical trial (Example 3) for DA and the pharmacokinetic data published for commercially-marketed sitagliptin, support non-cumulative toxicity risk. Accordingly, DPP-4i drugs and the denatonium salts listed herein are an effective oral combination for the treatment of obesity.
# For sitagliptin as a single agent, the current guidelines indicate a daily dose of 100 mg PO QD (notwithstanding for those with renal impairment, recommended doses can be as low as 25 mg to 50 mg PO QD). […] In view of DA's pharmacokinetics (substantial gut restriction) and relatively non-toxic nature, the optimal dose ranges can be safely adjusted higher. […]
# [4] = system: AMLN-diet induced mice (fatty liver disease/NASH model); type: in vivo; conditions: in words
# Text: This Example provides the results obtained from an in vivo mouse model of fatty liver disease treatment to investigate the therapeutic effect of DA on the treatment of NASH versus positive control semaglutide (a GLP-1 agonist marketed drug for lowering HbA1c). This study used a positive control semaglutide, a vehicle control, study drug DA and a combination of semaglutide and DA. Mouse strain (B6 mice) was used, and the animals were already adults (23 weeks old) when the study began because the animals were already fed an AMLN diet for 17 weeks prior to the study being initiated. The study dose began at 75 mg/kg BID.
# The study included 3 groups of 10 mice each, (A) vehicle control with distilled water by gavage BID, (B) DA by gavage BID, and (C) semaglutide […] sc QD. Body weights and changes were measured 3× per week. Serum metabolic markers (blood glucose, blood insulin, HbA1c, HDL, LDL triglycerides and bile acids) were measured at beginning of dosing (baseline) and end of study. At the end of the study, histopathology of liver samples and serum levels of inflammatory biomarkers (IL-6, TNFα, CK-18 and TGF-β) were evaluated. Histopathology was performed blindly with a scoring scale according to NAFLD Activity Score and Fibrosis Score according to Table 13. Table 14 identifies the kits and equipment used to measure serum parameters.
# ob/ob mice = assay: DA in ob/ob mice fed with high-fat diet, 8 weeks (Table 10); type: in vivo, mouse; conditions: DA 50 mg/kg BID for 8 weeks
# Text: The data for the DPP-4 inhibitors was obtained from J. Clin. Biochem. Nutr. 2015; 57(3):244-53. Acta Pharmacol. Sin. 2012; 33(8): 1013-22. J. Pharmacol. Exp. Ther. 2012; 342(1): 71-80; and Eur. J. Pharmacol. 2008; 588(2-3):325-32.
# [5] = system: high-fat diet-induced obese (DIO) mice; type: in vivo; conditions: in words
# Procedure: This Example provides the results from an in vivo study of denatonium acetate and sitagliptin in high-fat diet-induced obese (DIO) mice. C57BL/6NTac mice (at least 12 weeks of age) were fed with a high fat diet. All mice were dosed orally by gavage as (a) Vehicle group (N=15) dosed with distilled water BID, (b) DA group (N=15) dosed at 75 mg/kg (denatonium weight) BID; (c) sitagliptin group (N=15) dosed by gavage with 10 mg/kg QD; and (d) DA+ sitagliptin group (N=15) treated with DA at 75 mg/kg (denatonium based weight) BID and sitagliptin at 10 mg/kg by gavage QD. The groups were dosed for 8 weeks followed by a 5-7 day […] period. Body weight and body weight changes were measured three times per week. Serum biomarker levels for blood glucose (after fasting 6-8 hours), blood insulin, percentage of blood HvA1c, HDL, LDL, total triglycerides (TG), total cholesterol (TC) and bile acid were measured twice during the study at day 28 and at the end (day 56) of the study. Cumulative food intake and water consumption for each animal was measured.
# [6] = Appetite suppression effect of DA in animals; type: in vivo
# Text: Thus, twice daily dosing is preferred for abrogation of appetite throughout the day. […] Therefore, the preferred dosing for MetS treatment is QD.
# [7] = system: C57Bl/6J mice fed with high-fat diet; assay: DA in C57Bl/6J mice fed with high-fat diet, 8 weeks (Table 11); type: in vivo, mouse
# Text: Similarly, Table 11 provides a comparison of denatonium acetate (DA) with DPP-4 inhibitors in similar ob/ob mice model. The data for the DPP-4 inhibitors was obtained from Am. J. Physiol. Endocrinol. Metab. 2011; 300(2); E410-E421. Biochim. Biophys. Acta Gen. Subj. 2018; 1862(3):403-413. PLOS One. 2012; 7(6):e38744; and Aging Cell. 2019; 18(2):e12883.
# [8] = system: gut peptide hormones GLP-1, GLP-2 and PYY; assay: Phase 1 clinical trial of DA: gut peptide hormones before and one hour after a single oral dose (Example 3); type: in vivo, human; conditions: in words, single dose DA 240 mg tablet vs placebo
# Procedure: This Example provides data of three gut peptide hormones from a phase 1 clinical trial of denatonium acetate after a single dose of DA at 240 mg in a tablet in the formulation disclosed herein. The subjects were either placebo or 240 mg DA and blood samples were taken just prior to dosing and one hour after oral dosing.
# [9] = pig, in vivo; cited from earlier work
# [10] = in vivo; cited from earlier work; remark: listed apart in the source
# [11] = each animal, end of study (Day 31), DA 75 mg/kg PO BID, liraglutide 200 μg/kg SC BID, 4-week dosing
# [12] = group mean, end of study (Day 31), DA 75 mg/kg PO BID, liraglutide 200 μg/kg SC BID, 4-week dosing
# [13] = in words, vs vehicle, Day 31, DA 75 mg/kg PO BID, liraglutide 200 μg/kg SC BID
# [14] = in words, Day 31, 4-week dosing
molecule,measurement,setting,value
PYY: gut peptide hormone released from L-cells,half-life,[1],9 to 14 min
"CC(=O)[O-].CC[N+](CC)(CC(=O)Nc1c(C)cccc1C)Cc1ccccc1 [DA, denatonium acetate]",Body Weight Gain,[2]; [11],10.1 g and 6.7 g and 7.2 g (3×) and 9.6 g (2×) and 7.4 g and 5.2 g and 7 g and 8.1 g and 6.9 g and 11.2 g and 4.5 g and 7.5 g
same,Serum TG Level,[2]; [11],13.06 mmol/L and 13.49 mmol/L and 11.69 mmol/L and 13.35 mmol/L and 18.18 mmol/L and 14.27 mmol/L and 15.38 mmol/L and 12.93 mmol/L and 15.46 mmol/L and 19.24 mmol/L and 11.73 mmol/L and 15.13 mmol/L and 13.72 mmol/L and 13.59 mmol/L and 15.48 mmol/L
same,"Body Weight Gain, Mean",[2]; [12],7.69 g
same,"Serum TG Level, Mean",[2]; [12],14.45 mmol/L
same,serum BA level,"[2]; in words, vs vehicle control, Day 31, 4-week dosing",significant increase in serum BA level
same,Body Weight Gain,[2]; [13],significantly reduced
same,Serum TG Level,[2]; [13],significantly decreased serum TG level
same,serum HbA1c level,[2]; [14],did not show significant effect
same,serum LDL level,[2]; [14],no significant difference in serum LDL level
same,serum glucose level,[2]; [14],significantly decreased serum glucose level
same,serum insulin level,[2]; [14],considerably decreased serum insulin level
same,gut-restricted,[3],~99%
same,safe dosing in phase 1 clinical trial,[3],safely dosed to 240 mg PO BID
same,NAFLD Activity Score based on blinded histopathologic review,"[4]; 12 weeks, DA 75 then 50 mg/kg BID by gavage, semaglutide 10 mmol/kg sc QD",significantly improved NAFLD Activity Score
same,body weight and body weight change,"[4]; 12 weeks, DA 75 then 50 mg/kg BID, semaglutide 10 mmol/kg sc QD",remarkable effect on body weight
same,HDLs,[4]; end of study,significantly decreased
same,LDLs,[4]; end of study,significantly decreased
same,TGs,[4]; end of study,significantly decreased
same,Control-adjusted Percent Change in Fasting Blood Glucose,ob/ob mice,−29.3%*
same,Control-adjusted Percent Change in HbA1c Level,ob/ob mice,+0.8%
same,Control-adjusted Percent Change in Insulin Level,ob/ob mice,+4.3%
same,Control-adjusted Percent Change in LDL Level,ob/ob mice,−27.5%*
same,Control-adjusted Percent Change in TG Level,ob/ob mice,−21.2%*
same,fasting blood glucose levels,"[5]; vs vehicle controls, day 28 and day 56",significantly decreased fasting blood glucose levels
same,high-density lipoprotein (HDL) levels,"[5]; vs vehicle controls, day 56 (FIG. 22B)",significantly decreased high-density lipoprotein (HDL) levels
same,weight loss,[5]; 56-day study summary,significant weight loss; also recorded: statistically significant reduction of weight in the DA group versus the sitagliptin group
same,effect on body weight (relative body weight percentage and relative body weight change),"[5]; DA 75 mg/kg BID, sitagliptin 10 mg/kg QD by gavage, 8 weeks",much greater effect on body weight
same,effect on body weight,[5]; day 56,significant effect on body weight
same,"translationally relevant biomarkers (blood glucose, HbA1C, insulin, triglycerides, LDL cholesterol, total cholesterol)",[5]; relative to sitagliptin alone,superior benefit relative to sitagliptin alone
same,duration of observed appetite suppression effect,[6],about 8 hours
same,Control-adjusted Percent Change in Body Weight Gain,[7]; DA 75 mg/kg BID for 8 weeks,−33.9%*
same,Control-adjusted Percent Change in Fasting Blood Glucose,[7]; DA 75 mg/kg BID for 8 weeks,−5.3%
same,Control-adjusted Percent Change in GLP-1 Level,[7]; DA 75 mg/kg BID for 8 weeks,+27.5%*
same,Control-adjusted Percent Change in Insulin Level,[7]; DA 75 mg/kg BID for 8 weeks,−42.9%
same,Control-adjusted Percent Change in Lipid Levels: LDL,[7]; DA 75 mg/kg BID for 8 weeks,−18.3% in LDL
same,Control-adjusted Percent Change in HbA1c Level,"[7]; DA 75 mg/kg BID, at the end of Week 4",−3.7%* (at the
same,percent change for GLP-1 between time 0 and one hour after oral dosing,[8],the difference was significant
same,GLP-2 gut peptide hormone,[8]; one hour after dosing,trend for GLP-2 gut peptide hormone increase
same,PYY gut peptide hormone,[8]; one hour after dosing,trend for PYY gut peptide hormone increase
PYY (3-36): DPP-4 cleaved form of the gut peptide hormone PYY,half-life,[9],< 30 min
O=C1[C@H](CC[C@H](O)c2ccc(F)cc2)[C@@H](c2ccc(O)cc2)N1c1ccc(F)cc1 [Ezetimibe],reduction of LDL cholesterol,[10],about 18%
